The values that follow are results of earlier work, collected in patent publication US20240050514A1, “USE OF COMPOUND, PHARMACEUTICAL COMPOSITION FOR THE TREATMENT OF IMMUNE OR METABOLIC DISORDERS, PHARMACEUTICAL COMPOSITION FOR THE TREATMENT OF ILLNESSES CAUSED BY OR ASSOCIATED WITH VIRUSES” (PROTEIMAX BIOTECNOLOGIA LTDA., priority 2021, published 2024).

The target in data set [1] is ACE (Homo sapiens, UniProt P12821). The conditions noted are these: read-out: inhibition constant Ki.
Data set [2] has as its system rats.
The conditions of data set [3]: in vivo.

The structures appear in SMILES notation.

Chain of ACE (P12821 30-1306, species assumed): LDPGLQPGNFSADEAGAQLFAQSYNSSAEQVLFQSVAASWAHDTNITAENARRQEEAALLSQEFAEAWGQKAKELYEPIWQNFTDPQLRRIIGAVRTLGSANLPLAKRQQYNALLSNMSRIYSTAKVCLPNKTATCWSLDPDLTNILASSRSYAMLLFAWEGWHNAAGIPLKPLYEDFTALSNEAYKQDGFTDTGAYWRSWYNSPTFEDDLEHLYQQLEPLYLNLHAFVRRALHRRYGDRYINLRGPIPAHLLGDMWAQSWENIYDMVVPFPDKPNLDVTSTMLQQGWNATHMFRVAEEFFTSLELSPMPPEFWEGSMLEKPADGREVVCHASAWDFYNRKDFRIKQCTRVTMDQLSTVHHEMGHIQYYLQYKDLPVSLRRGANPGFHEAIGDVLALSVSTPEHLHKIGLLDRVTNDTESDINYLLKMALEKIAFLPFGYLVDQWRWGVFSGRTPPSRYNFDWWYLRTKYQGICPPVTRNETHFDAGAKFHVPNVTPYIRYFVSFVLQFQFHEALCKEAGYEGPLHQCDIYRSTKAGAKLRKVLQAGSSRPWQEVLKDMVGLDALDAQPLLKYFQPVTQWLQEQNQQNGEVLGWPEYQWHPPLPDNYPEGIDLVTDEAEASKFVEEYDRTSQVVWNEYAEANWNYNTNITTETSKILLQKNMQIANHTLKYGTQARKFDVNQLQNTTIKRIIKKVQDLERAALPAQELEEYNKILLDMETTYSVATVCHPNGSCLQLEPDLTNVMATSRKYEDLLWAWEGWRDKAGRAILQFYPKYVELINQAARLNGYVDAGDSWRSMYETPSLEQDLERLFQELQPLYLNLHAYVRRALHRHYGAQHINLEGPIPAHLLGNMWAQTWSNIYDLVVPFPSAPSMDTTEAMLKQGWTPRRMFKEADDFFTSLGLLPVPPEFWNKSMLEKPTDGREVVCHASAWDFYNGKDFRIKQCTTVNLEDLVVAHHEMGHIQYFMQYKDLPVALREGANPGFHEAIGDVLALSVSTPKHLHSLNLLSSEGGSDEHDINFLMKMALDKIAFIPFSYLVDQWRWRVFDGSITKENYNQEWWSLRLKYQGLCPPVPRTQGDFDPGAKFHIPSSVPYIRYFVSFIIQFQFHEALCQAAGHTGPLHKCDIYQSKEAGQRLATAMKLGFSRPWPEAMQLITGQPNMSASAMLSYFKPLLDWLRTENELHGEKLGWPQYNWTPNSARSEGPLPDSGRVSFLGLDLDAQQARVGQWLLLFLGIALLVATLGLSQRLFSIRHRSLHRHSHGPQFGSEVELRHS

By Ki is commonly meant the dissociation constant of the complex between target and ligand, obtained from inhibition or displacement. Turning to `CC(C)C[C@H](NC(=O)[C@H](Cc1ccccc1)NC(=O)[C@H](CCCCN)NC(=O)[C@H](Cc1ccccc1)NC(=O)[C@H](CC(N)=O)NC(=O)[C@@H](NC(=O)[C@@H]1CCCN1)C(C)C)C(=O)N[C@@H](CO)C(=O)N[C@@H](Cc1cnc[nH]1)C(=O)O` [hemopressin, PVNFKFLSH], in data set [1], the inhibition constant (Ki) is 1.87 mM. In addition, in data set [2], the “basal levels of monoamine in the prefrontal cortex” value was “reduction in the basal levels of monoamine in the prefrontal cortex”; the behavior after administration entry is “induced anxiogenic and depressive behavior”. The “crossing of the blood-brain barrier” value in data set [3] is reported as “does not cross the blood-brain barrier”.
